Results reported in patent publication US9242945B2, “Substituted 2-benzylidene-2H-benzo[b][1,4]thiazin-3(4H)-ones, derivatives thereof, and therapeutic uses thereof” (TEMPLE UNIVERSITY—OF THE COMMONWEALTH SYSTEM OF HIGHER …, priority 2011, dated 2016).

Tests used:
HFL = test: Cytotoxicity assay, normal human fibroblast cell line HFL; type: cell-based
Procedure: (§1) The effect of the compounds of the invention on tumor cells was determined by the assay described by Latham et al., Oncogene 12:827-837 (1996). Tumor cells K562 (chronic myelogenous leukemia; leukemia cell line +ve for Bcr-Abl) or DU145 (prostate cancer) were plated in 12-well dishes at a cell density of 2.5×10^4 cells well. The plated cells were treated 24 hours later with a compound of the invention dissolved in DMSO at multiple concentrations ranging from 0.01 μM to 100 μM. The plates were examined 96 hours later under an inverted microscope, Olympus CK-2 using a 10× objective, and compound activity was noted by physical observation. When necessary, the total number of viable cells was determined by trypsinizing the wells and counting the number of viable cells, as determined by trypan blue exclusion, using a hemacytometer. Where “Lower” and “Upper” value are provided in Table 5, the IC50 was determined to be within that range. […]
(§2) The cytotoxicity of Compound 42, (Z)-6-((2,6-dichlorobenzyl)sulfonyl)-2-(4-hydroxy-3-nitrobenzylidene)-2H-benzo[b][1,4]thiazin-3(4H)-one, was determined according the assay method of Example 7 on the prostate (androgen dependent or independent), breast and pancreatic cancer cell lines listed in Table 6A, below, and the additional cell lines listed in Table 6B, below. […]

VCAP = test: Cancer cell cytotoxicity assay, VCAP; type: cell-based; conditions: Homo sapiens, Prostate Cancer
Procedure: as §1, §2

[1] = system: K562 (chronic myelogenous leukemia; leukemia cell line +ve for Bcr-Abl); test: Cytotoxicity assay, K562 tumor cells; type: cell-based; conditions: Homo sapiens
Procedure, shortened: (§3)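 Cells were seeded at 2.5×10^4 per well and treated 24 h later with compound in DMSO at 0.01–100 μM. After 96 h, activity was judged by microscopy and, when needed, by trypan blue viable-cell counts. IC50 values are given either as a range or as a single bound.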

BT-474 = test: Cancer cell cytotoxicity assay, BT-474; type: cell-based; conditions: Homo sapiens; BT-474, Breast Cancer
Procedure: as §1, §2

MCF10A = test: Cytotoxicity assay, MCF10A; type: cell-based; conditions: Homo sapiens, MCF-10A, Normal Breast
Procedure: as §1, §2

H23 = test: Cancer cell cytotoxicity assay, H23; type: cell-based; conditions: Homo sapiens, NCI-H23; H23, Non-small cell lung cancer
Procedure: as §1, §2

[2] = system: MDA.MB-231 breast cancer cells; test: Cell cycle arrest in cancer cells; type: cell-based; conditions: increasing concentrations
From the text: MDA.MB-231 breast cancer cells treated with increasing concentrations Compound 42

A549 = test: Cancer cell cytotoxicity assay, A549; type: cell-based; conditions: Homo sapiens; A549, Non-small cell lung cancer
Procedure: as §1, §2

MDA.MB-468 = test: Cancer cell cytotoxicity assay, MDA.MB-468; type: cell-based; conditions: Homo sapiens; MDA.MB-468, Breast Cancer
Procedure: as §1, §2

HCT-116 = test: Cancer cell cytotoxicity assay, HCT-116; type: cell-based; conditions: Homo sapiens; HCT-116, Colon cancer
Procedure: as §1, §2

22Rv1 = test: Cancer cell cytotoxicity assay, 22Rv1; type: cell-based; conditions: Homo sapiens; 22Rv1, Prostate Cancer
Procedure: as §1, §2

CDK9 = molecular target: T1, CDK9 (Homo sapiens, UniProt P50750); test: CDK9 inhibition (32P-ATP kinase assay); type: biochemical; conditions: PDKtide substrate, 20 μM cold ATP
T1 construct: CDK9 (human full length protein; Invitrogen PV4335); purchased Invitrogen PV4335
T1 sequence (P50750 whole entry): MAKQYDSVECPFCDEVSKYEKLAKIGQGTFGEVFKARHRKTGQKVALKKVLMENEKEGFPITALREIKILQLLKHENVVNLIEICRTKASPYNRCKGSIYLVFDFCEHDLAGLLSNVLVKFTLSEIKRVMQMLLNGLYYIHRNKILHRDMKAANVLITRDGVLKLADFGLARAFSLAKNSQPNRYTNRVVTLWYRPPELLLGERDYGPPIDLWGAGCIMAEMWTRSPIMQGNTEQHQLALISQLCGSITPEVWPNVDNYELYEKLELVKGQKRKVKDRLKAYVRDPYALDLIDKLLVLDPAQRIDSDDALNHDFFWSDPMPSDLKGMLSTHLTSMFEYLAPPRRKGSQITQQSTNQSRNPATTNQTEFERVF
T1 sequence (O75909 whole entry partner): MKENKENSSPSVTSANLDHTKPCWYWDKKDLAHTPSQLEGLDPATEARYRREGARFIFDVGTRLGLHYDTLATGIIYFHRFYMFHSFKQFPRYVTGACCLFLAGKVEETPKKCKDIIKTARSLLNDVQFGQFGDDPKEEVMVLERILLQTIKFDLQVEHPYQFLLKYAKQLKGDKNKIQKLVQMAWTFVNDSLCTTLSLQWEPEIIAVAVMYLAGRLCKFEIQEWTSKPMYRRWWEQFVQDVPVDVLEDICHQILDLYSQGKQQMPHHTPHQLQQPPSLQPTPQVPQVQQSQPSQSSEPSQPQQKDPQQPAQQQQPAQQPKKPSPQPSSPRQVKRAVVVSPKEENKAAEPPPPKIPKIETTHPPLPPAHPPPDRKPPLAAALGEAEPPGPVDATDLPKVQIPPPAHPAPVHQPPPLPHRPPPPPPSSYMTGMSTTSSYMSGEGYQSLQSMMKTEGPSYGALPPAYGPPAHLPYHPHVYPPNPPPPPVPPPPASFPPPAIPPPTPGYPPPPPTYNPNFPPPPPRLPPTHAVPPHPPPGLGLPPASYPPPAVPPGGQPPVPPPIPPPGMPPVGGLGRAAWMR
Procedure: The ability of Compound 42 to inhibit the activity of the kinase CDK9 was determined as follows. Twenty-five nanograms of CDK9 (human full length protein; Invitrogen PV4335) was diluted into kinase buffer (20 mM Tris pH 7.5, 10 mM MgCl2, 0.01% NP-40, 1 mM EGTA, 2 mM DTT) and incubated with varying concentrations of Compound 42 at room temperature for 30 minutes. The kinase reactions were initiated by the addition of 20 μM of CDK9/Cyclin K specific synthetic peptide substrate (PDKtide, P10-58, SignalChem), 20 μM cold ATP, and 20 μCi γ-32P-ATP. The reactions were incubated at 30° C. for 20 minutes and terminated by the addition of 0.5M o-Phosphoric acid. 10 μl of the reaction mixture was spotted on a P-30 Filtermat (PerkinElmer) and developed using autoradiography or phosphorimaging.

LnCap = test: Cancer cell cytotoxicity assay, LnCap; type: cell-based; conditions: Homo sapiens, Prostate Cancer (Androgen Dependent)
Procedure: as §1, §2

Z138C = test: Cancer cell cytotoxicity assay, Z138C; type: cell-based; conditions: Mantle cell lymphoma
Procedure: as §1, §2

U266B1 = test: Cancer cell cytotoxicity assay, U266B1; type: cell-based; conditions: U266B1, Multiple Myeloma
Procedure: as §1, §2

DU145 (prostate cancer) = test: Cytotoxicity assay, DU145 tumor cells; type: cell-based; conditions: Homo sapiens
Procedure, shortened: as §3

CK2α = molecular target: T2, CK2α (Homo sapiens, UniProt P68400); test: Casein kinase 2 inhibition, CK2α subunit (32P-ATP kinase assay); type: biochemical; conditions: 20 μM cold ATP; 30 min preincubation, 20 min at 30° C.
T2 construct: CK2α (human full length protein)
T2 sequence (P68400 3-339 limits assumed): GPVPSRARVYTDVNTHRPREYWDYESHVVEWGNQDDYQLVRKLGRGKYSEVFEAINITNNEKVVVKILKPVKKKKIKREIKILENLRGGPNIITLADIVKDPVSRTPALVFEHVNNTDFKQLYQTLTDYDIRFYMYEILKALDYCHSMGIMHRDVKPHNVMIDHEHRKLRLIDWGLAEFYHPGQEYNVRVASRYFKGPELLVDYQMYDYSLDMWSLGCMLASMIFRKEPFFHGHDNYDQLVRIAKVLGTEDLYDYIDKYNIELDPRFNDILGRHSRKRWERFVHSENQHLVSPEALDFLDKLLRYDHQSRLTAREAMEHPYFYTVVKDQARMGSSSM
Procedure: The ability of Compound 42 to inhibit the activity of casein kinase 2 (CK2) was determined as follows using the catalytic CK2 subunits CK2α and CK2α2. Two and one half nanograms of CK2α (human full length protein; Invitrogen PV3248), 2.5 ng of a CK2α form containing amino acids 3-339) or 10 ng of CK2α2 (human full length protein; Invitrogen PV3624) was diluted into kinase buffer (20 mM Tris pH 7.5, 10 mM MgCl2, 0.01% NP-40, 1 mM EGTA, 2 mM DTT) and incubated with varying concentrations of Compound 42 at room temperature for 30 minutes. Kinase reactions were initiated by the addition of 1 μg of CK2 substrate α-synuclein or 40 μM CK2 synthetic peptide substrate (AnaSpec, San Jose, Calif.), 20 μM cold ATP, and 20 μCi γ-^32P-ATP. The reactions were incubated at 30° C. for 20 minutes, terminated by the addition of 2× Laemmle sample buffer, boiled for 2 minutes, resolved by 12% acrylamide SDS-PAGE, and subjected to autoradiography.

GRANTA = test: Cancer cell cytotoxicity assay, GRANTA; type: cell-based; conditions: Mantle cell lymphoma
Procedure: as §1, §2

HMSC.hTERT = test: Cytotoxicity assay, human mesenchymal stem cell line HMSC.hTERT; type: cell-based
Procedure: as §1, §2

`O=C1Nc2cc(S(=O)(=O)Cc3c(Cl)cccc3Cl)ccc2S/C1=C\c1ccc(O)c([N+](=O)[O-])c1` [Compound 42, (Z)-6-((2,6-dichlorobenzyl)sulfonyl)-2-(4-hydroxy-3-nitrobenzylidene)-2H-benzo[b][1,4]thiazin-3(4H)-one] was tested, and the “cell death in the normal human fibroblast cell line” value (HFL) was “did not cause cell death”, the GI50 (HFL; Homo sapiens, Normal Fibroblast) was > 10000 nM and the GI50 (VCAP) was 180 nM. For the same compound, the IC50 ([1]; K562, 96 h treatment, lower limit of the IC50 range, or the IC50 itself (or its bound) where no Upper value is listed, read-out: K562 IC50 (μm) Lower (μm)) was 100 nM, the GI50 ([1]; K562, Chronic myelogenous leukemia) was 160 nM and the GI50 (BT-474) was 200 nM. For the same compound, the GI50 (MCF10A) was 2500 nM, the GI50 (H23) was 65 nM and the “cell cycle arrest in cancer cells” value [2] was “induces cell cycle arrest”. It also gave a GI50 (A549) of 160 nM, a GI50 (MDA.MB-468) of 200 nM and a GI50 (HCT-116) of 150 nM. It also gave a GI50 (22Rv1) of 500 nM, an IC50 (CDK9) of 93.7 nM and a GI50 (LnCap) of 250 nM. It also gave a GI50 (Z138C) of 70 nM, a GI50 (U266B1) of 100 nM and an IC50 (DU145 (prostate cancer); DU-145, 96 h treatment, lower limit of the IC50 range, or the IC50 itself (or its bound) where no Upper value is listed, read-out: DU145 IC50 (μm) Lower (μm)) of 150 nM. It also gave a GI50 (DU145 (prostate cancer); DU-145, Prostate Cancer (Androgen Independent)) of 160 nM, an IC50 (CK2α) of 362 nM and a GI50 (GRANTA) of 80 nM. The “cell death in the normal human stem cell line” value (HMSC.hTERT) was “did not cause cell death” and the GI50 (HMSC.hTERT; Human Mesenchymal Stem cells) was > 10000 nM.
